From patent EP3431484A1, “A FLUORESCENT CYCLIC DINUCLEOTIDE AND ITS USE IN METHODS OF IDENTIFYING SUBSTANCES HAVING AN ABILITY TO MODULATE THE CGAS/STING PATHWAY” (Ludwig-Maximilians-Universität München, priority 2017, dated 2019)

Tested on: human truncated STING (hSTING^cd), cytosolic domain aa 139-379, R220H+H232R variant
Details: 200 µM hSTING^cd, 0-150 µM competitor; Figure 10d
Experimental: The quenching effect of STING on 2'3'fGAMP can be further used to search and compare STING-binding compounds. […] After second round of incubation for 15 min the samples were measured in 96-well black non-binding PS plates (Greiner Bio-One) on Tecan infinite M1000 (λex=305 nm, λem=363 nm, gain 140, settle time 10ms) at 25°C.

Nc1nc2c(ncn2[C@@H]2O[C@@H]3COP(=O)(O)O[C@H]4[C@@H](O)[C@H](n5cnc6c(=O)[nH]c(N)nc65)O[C@@H]4COP(=O)(O)O[C@H]3[C@H]2O)c(=O)[nH]1 [c-di-GMP]
affinity towards STING, compared by slope of fluorescence increase (s1, s2): lower affinity
